Test results from PMC7259601 (PLoS ONE, 2020).

Key:
MAO-A = biological target: T1, MAO-A (Mus musculus, UniProt Q64133); experiment: L-5-HTP-induced symptoms test; format: in vivo, CD1 mice
T1 construct: from tissue; host or cells: mouse brain (homogenate ex vivo; living animal in the L-5-HTP test)
T1 sequence (Q64133 1-526): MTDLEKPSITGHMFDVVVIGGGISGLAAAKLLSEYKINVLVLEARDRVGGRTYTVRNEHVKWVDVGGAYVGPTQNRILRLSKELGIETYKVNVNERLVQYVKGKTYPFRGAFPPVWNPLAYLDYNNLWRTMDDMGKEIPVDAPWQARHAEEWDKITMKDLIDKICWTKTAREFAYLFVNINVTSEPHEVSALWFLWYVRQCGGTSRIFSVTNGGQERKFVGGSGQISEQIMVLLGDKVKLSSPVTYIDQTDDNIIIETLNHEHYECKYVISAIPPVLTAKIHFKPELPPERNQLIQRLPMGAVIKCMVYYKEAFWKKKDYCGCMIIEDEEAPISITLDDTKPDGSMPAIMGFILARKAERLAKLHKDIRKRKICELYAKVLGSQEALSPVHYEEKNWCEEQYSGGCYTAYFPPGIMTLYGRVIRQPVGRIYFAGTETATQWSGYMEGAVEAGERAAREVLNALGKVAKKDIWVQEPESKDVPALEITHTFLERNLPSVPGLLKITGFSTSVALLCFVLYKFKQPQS
Protocol: Male C57BL/6 mice (8 weeks of age, 25-30 g) procured from Harlan Interfauna Iberica were housed in the same condition that in MAO-B PEA section. This test was performed essentially as previously described. Test compound was administered p.o. at several dose levels to groups of mice (N = 10/dose) 60 min before an i.p. injection of L-5-HTP (100 mg/kg). This dose of 5-L-HTP produced no effects in control animals. […] Studies were performed in accordance with the institutional guidelines for the care and use of laboratory animals (European Communities Council Directive 86/609/EEC) established by the Ethical Committee for Animal Experimentation at the PRAAL-PCB.
This test was performed essentially as previously described [90](Koe et al., 1983). Test compound was administered p.o. at several dose levels 60 min before an i.p. injection of L-5-HTP. […] One score assigned to each symptom observed per animal, giving a maximal obtainable score of 30 per group of 10 mice.
Behavior was rated as outline above.

MAO-B [1] = biological target: MAO-B (Mus musculus, UniProt Q8BW75); conditions: p.o. gavage, followed by 25 mg/kg PEA
SETD1 +/- mice = test system: SETD1 +/- mice; design: method as in PMID 31606247; conditions: cited from earlier work
MAO-B [2] = conditions: 3 mg/kg/day; cited from earlier work
brain MAO-B = biological target: T2, brain MAO-B (Mus musculus, UniProt Q8BW75); experiment: MPTP neurotoxicity model; format: in vivo, C57BL/6 mice; conditions: i.p. 3 mg/kg
T2 construct: from tissue; host or cells: mouse brain (homogenate ex vivo; living animal in the MPTP and PEA tests)

SAMP8 mice = experiment: Novel Object Recognition Test (NORT); format: in vivo, mouse; conditions: 3 mg/kg/day (Exp4), p = 0.12
Protocol: Both male and female mice from the senescence accelerated strain SAMP8 and its control SAMR1 of different ages (see Table S3 for details) were used in these studies. Mice were breed in the animal facilities of the Pharmacy Faculty (University of Barcelona), maintained in a at 22 ± 2 °C controlled temperature in a 12 hr light / dark cycle (lights on at 8:00 am; 300 lux/0 lux) with ad libitum access to food (2018 TEKLAD, Harlan) and water. Male mice were housed individually (males) or in groups of 4-5 animals (females) in plastic colony boxes with a sawdust bedding material. […] SAMR1 mice treated with vehicle were included as a control. All drugs were administered via drinking water and diluted in vehicle. Drug concentration was calculated weekly in function of body weight and corrected in function of drinking water consumption. Cognitive function was evaluated by NORT, social behavior was evaluated by RI and anxiety and motor function were evaluated by EPM and OF. When necessary, animals were deeply anesthetized (80 mg/kg sodium pentobarbital) and brain samples (hippocampus, (prefrontal) cortex) were micro-dissected and processed according to the downstream analysis.
The protocol was performed as previously described. Briefly, animals were placed in a 90°- two-arm maze. Mice were habituated to the apparatus for 10 min during 3 consecutive days. On day 4, two identical novel objects (A+A or B+B) were placed at the end of each arm and animals performed a 10-min acquisition trial. A 10-min retention trial was carried out 2 hr after the acquisition trial with object A and B. Time exploring the novel (NO) and the familiar object (FO) was measured and a discrimination Index (DI) was defined as (NO-FO)/(NO+FO). In some experiments, a more restrictive threshold was applied and animals exploring less than 5 sec (NO+FO) were excluded from the analysis (Table S3).
Novel Object Recognition Test (NORT): Time exploring the novel (NO) and the familiar object (FO) was measured and a discrimination Index (DI) was defined as (NO-FO)/(NO+FO). In some experiments, a more restrictive threshold was applied and animals exploring less that 5 sec (NO+FO) were excluded from the analysis (Table S3). Open Field (OF): Locomotor activity was analyzed by video-tracking over the captured images using SMART® (v 2.5.21 (rat) or v3.0 (mice), PanLab, SLU, Spain).

KDM1A-E8a KO mice = test system: KDM1A-E8a KO mice; design: method as in PMID 26976584; conditions: cited from earlier work
[3] = test system: NMDA receptor NR1 subunit hypofunction mice; design: method as in PMID 30580376; conditions: cited from earlier work

T2 sequence (Q8BW75 whole entry): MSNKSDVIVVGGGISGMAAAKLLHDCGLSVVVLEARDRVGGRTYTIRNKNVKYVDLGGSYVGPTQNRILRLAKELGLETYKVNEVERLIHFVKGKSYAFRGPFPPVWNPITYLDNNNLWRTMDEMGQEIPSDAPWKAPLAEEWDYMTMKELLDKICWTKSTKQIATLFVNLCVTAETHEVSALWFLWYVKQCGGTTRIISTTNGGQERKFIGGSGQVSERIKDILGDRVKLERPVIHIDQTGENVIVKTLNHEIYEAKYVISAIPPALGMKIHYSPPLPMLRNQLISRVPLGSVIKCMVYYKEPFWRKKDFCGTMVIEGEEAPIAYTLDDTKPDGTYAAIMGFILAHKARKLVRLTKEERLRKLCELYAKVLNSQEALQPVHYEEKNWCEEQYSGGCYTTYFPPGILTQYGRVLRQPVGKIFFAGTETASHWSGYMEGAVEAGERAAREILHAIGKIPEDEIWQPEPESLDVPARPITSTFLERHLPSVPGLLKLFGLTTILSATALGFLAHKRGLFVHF
Sequence of MAO-B (Mus musculus, UniProt Q8BW75) (Q8BW75 whole entry): as above

N[C@@H]1C[C@H]1c1ccccc1 (racemic) [TCP, tranylcypromine]
ED50 potentiation of L-5-HTP-induced symptoms (MAO-A; p.o. gavage, followed by 100 mg/kg L-5-HTP i.p.): 1.4 mg/kg
ED50 potentiation of PEA-induced symptoms (MAO-B [1]): 1.1 mg/kg

N[C@H]1CC[C@H](N[C@@H]2C[C@H]2c2ccccc2)CC1 [Iadademstat]
cortical synaptic plasticity deficit and working memory (SETD1 +/- mice): reversed cortical synaptic plasticity deficit and the working memory

C#CCN[C@@H]1CCc2ccccc21 [RSG, rasagiline]
MAO-B inhibition at the dose used (MAO-B [2]): complete MAO-B inhibition
protection against the MPTP insult (brain MAO-B): full protection
NORT discrimination capacity (SAMP8 mice): tendency for improvement without reaching significance

O=C(CCCCCCC(=O)Nc1ccccc1)NO [SAHA]
deficient stress response and low anxiety phenotype (KDM1A-E8a KO mice): rescued

C#CCN(C)[C@H](C)Cc1ccccc1 [SLG, selegiline]
ED50 (MAO-A; mouse, read-out: ED50 potentiation of L-5-HTP-induced symptoms): 42.2 mg/kg

Cc1nnc(NC(=O)c2cccc([C@@H]3C[C@H]3NC3CCC3)c2)s1 [T-448]
learning function [3]: improved the learning function
